In ChEMBL document CHEMBL3244420, “Pyrrole esters of tropanols and related structures as analgesics” (J Med Chem, 1977):
Activity calls are given as the source filed them. The rule behind the calls is not given here.

Experiments:
Mus musculus [1] = assay: Analgesic activity in sc dosed mouse by hot plate method; type: functional
Rhesus monkey [2] = assay: Toxicity in monkey assessed as precipitation of abstinence at 3 to 24 mg/kg; type: organism-based, Macaca mulatta; parameters: dose 3-24 mg/kg; conditions: in vivo
Rhesus monkey [3] = assay: Suppression of narcotic abstinence syndrome in monkey at 3 to 24 mg/kg; type: functional, organism-based; conditions: Macaca mulatta
Mus musculus [4] = assay: Analgesic activity in sc dosed mouse by Nilsen method; type: functional
Mus musculus [5] = assay: Analgesic activity in mouse at 100 mg/kg, sc by hot plate method; type: functional, organism-based; parameters: dose 100 mg/kg
Mus musculus [6] = assay: Analgesic activity in mouse at 50 mg/kg, sc by hot plate method; type: functional, organism-based; parameters: dose 50 mg/kg
Mus musculus [7] = assay: Analgesic activity in mouse at 20 mg/kg, sc by hot plate method; type: functional, organism-based; parameters: dose 20 mg/kg
Rhesus monkey [8] = assay: Toxicity in monkey assessed as morphine-like dependence liability; type: organism-based, Macaca mulatta; conditions: in vivo
Rhesus monkey [9] = assay: Suppression of narcotic abstinence syndrome in monkey at 5 mg/kg administered as single dose; type: functional, organism-based; parameters: dose 5 mg/kg; conditions: Macaca mulatta
Rhesus monkey [10] = assay: Toxicity in nonwithdrawn monkey assessed as precipitation of abstinence at 5 mg/kg; type: organism-based, Macaca mulatta; parameters: dose 5 mg/kg; conditions: in vivo

SMILES	ED50 (Mus musculus [1]) [mg/kg]	ED50 (Mus musculus [4]) [mg/kg]	further results
Cc1[nH]c(C)c(C(=O)O[C@@H]2[C@H]3O[C@H]4C[C@@H]2N(C)[C@H]3C4)c1C	6	28.9	Activity (Rhesus monkey [2]): Non-toxic; Activity (Rhesus monkey [3]): inactive
Cc1[nH]c(C)c(C(=O)OC2CC(C)(C)NC(C)(C)C2)c1C			Activity (Mus musculus [5]): inactive
Cc1[nH]c(C)c(C(=O)O[C@@H]2C[C@H]3CC[C@@H](C2)N3C)c1C			Activity (Mus musculus [6]): Active
Cc1[nH]c(C)c(C(=O)OC2CCCN(C)C2)c1C (stereo unspecified)			Activity (Mus musculus [5]): inactive
COc1ccc2c3c1O[C@H]1[C@@H](O)C=C[C@H]4[C@@H](C2)N(C)CC[C@@]341 [CODEINE]	7.5	4.5	
Cc1[nH]c(C)c(C(=O)OC2CCN(Cc3ccccc3)CC2)c1C.Cl.O	6.3		
Cc1[nH]c(C)c(C(=O)O[C@H]2C[C@H]3CC[C@@H](C2)N3C)c1C.O.O=C(O)C(F)(F)F	21.3		
CN1CC[C@]23c4c5ccc(O)c4O[C@H]2[C@@H](O)C=C[C@H]3[C@H]1C5 [MORPHINE]	1.2	0.8	
Cc1[nH]c(C)c(C(=O)OC2CCN(CCc3ccccc3)CC2)c1C			Activity (Mus musculus [7]): Active
Cc1c(C(=O)OC2CCN(C)CC2)c(C)n(C)c1C			Activity (Mus musculus [7]): Active
Cc1[nH]c(C)c(C(=O)OC2CCN(C)C2)c1C.Cl.O (stereo unspecified)	64.3		
Cc1[nH]c(C)c(C(=O)OC2CCN(C)CC2)c1C.O=C(O)C(F)(F)F	4.9	7.1	Activity (Rhesus monkey [8]): Non-toxic; Activity (Rhesus monkey [9]): inactive; Activity (Rhesus monkey [10]): Non-toxic
